Measurements published in US7638678B2, “Animal model for perimenopause and menopause and methods of inducing ovarian failure” (The Arizona Board of Regents, priority 2002, dated 2009).
“Also recorded” adds a separate entry of the source.

What was measured:
[1] = tested on: caspase-3; experiment: Caspase-3 protease activity in isolated small pre-antral follicles; format: in vivo, B6C3F1 mice
Method: Follicle Isolation: Small preantral follicles (fraction 1, 25-100 μm in diameter), were prepared by gentle enzymatic dissociation of ovaries and hand sorting with micropipettes. Pools of follicles were prepared from both ovaries of six mice in each treatment (control or VCD) for each observation. Following isolation, follicles were washed twice with M199 medium and stored at −20° C.
Caspase-3 Protease Activity Measurement: The cleavage activity of caspase-3 was measured by a fluorescent activity assay. Briefly, the enzymatic reaction was carried out at 37° C. in protease assay buffer (20 mM HEPES, 100 mM NaCl, 10 mM dithiothreitol, 1 mM EDTA, 0.1% [w/v] 3-3 ([3-cholamidopropyl] dimethylammonio)-1-propanesulfanate, and 10% sucrose pH 7.2). Cellular protein (60-180 μg) was incubated with 50 μM of caspase-3 substrate, DEVD-AMC, at 37° C. for 60 minutes. Substrate cleavage was detected by measurement of the fluorescence of free 7-amino-4-methylcoumarin (AMC) with an F-2000 fluorescence spectrophotometer (Hitachi, Ltd., Tokyo, Japan) at 460 nm emission upon excitation at 380 nm.

[2] = Body and wet tissue weights, vaginal opening; format: in vivo, B6C3F1 mice
Method: (§1) Treatment: Immature mice (d28) were weighed and injected i.p. with either 80 mg/kg (1, 2, or 3 times daily), 160 mg/kg (1 or 2 times daily), or 240 mg/kg (once daily) with VCD or sesame oil (vehicle control, i.p.) for 15 d resulting in a total daily exposure of 80, 160, 240, or 320 mg/kg (n=6/group). All reagents were obtained from Sigma-Aldrich (St. Louis, Mo.). Estrous cycles of each animal were monitored daily by vaginal cytology from date of vaginal opening to persistent diestrus in VCD-treated mice, and from date of vaginal opening to d120 in controls. On d8, d10, d12, d14, d15, d30, d37, d46, d57 and d120, animals were weighed, euthanized by CO2 inhalation, and the ovaries, liver and trunk blood were collected. Plasma was separated from whole blood and stored at −20° C., and liver tissues were stored at −80° C. At each time point, adrenals, kidneys, uteri, ovaries, liver, and spleen were removed, grossly examined for lesions and wet tissue weights were recorded. Additional blood samples were collected by retro-orbital puncture and plasma was collected and stored on d58, d79, d91, and d100.

[3] = tested on: FSH; experiment: Plasma FSH radioimmunoassay; format: in vivo, B6C3F1 mice; conditions: 160 mg/kg 15 d
Method: as §1
Hormone Assays: Plasma FSH was measured by radioimmunoassay (RIA). Rat FSH hormone antigen, rat FSH antiserum and mouse FSH reference preparation were purchased from the National Institute of Diabetes and Digestive and Kidney diseases. Iodination reagents (Iodo-Beads™28665, 28666) were purchased from Pierce (Rockford Ill.). Briefly, a standard curve was prepared and cold standards and samples (100 μl) were added to labeled tubes along with primary antibody (1:1400 dilution) and iodinated FSH. Samples were shaken and stored at 4 C overnight. On day 2, 100 μl secondary antibody (Sigma Chemical, cat. # R9133) was added (1:10) dilution along with 200 μl of 2% normal rabbit serum and incubated at room temperature for 5 minutes. Tubes were centrifuged for 15 minutes at 3000 rpm, supernatant was decanted and pellets were counted in a gamma counter for 1 minute each. All samples were run in duplicate. The mean sensitivity of the assay was 200 pg/ml and inter- and intra-assay coefficients of variation were 2.7% and 6.7% respectively. Plasma 17β-estradiol was measured in unextracted plasma by radioimmunoassay (Diagnostic Products Inc., CA). The mean sensitivity of the assay was 5.1 pg/ml. The intra-assay coefficient of variation was 5.3%. Circulating androstenedione was measured by specific RIA. Androstenedione standards and antibody were provided by Dr. Cheryl Dyer (Northern Arizona University). The mean sensitivity of the assay was 70 pg/ml with an inter-assay coefficient of variation of 5.3%. The results of all RIAs were calculated by four-parameter logistic analysis using the software AssayZap (BioSoft, Ferguson, Mo.). Results are the mean±SEM.

[4] = tested on: femur; experiment: Femur histology; format: in vivo, B6C3F1 mice; conditions: 160 mg/kg 15 d, femora d58
Method: Histology and oocyte counting: Ovaries were trimmed of fat and placed in Bouin's fixative (2 hours), transferred to 70% ethanol, paraffin-embedded and serially sectioned (4-5 μm), mounted and stained with hematoxylin and eosin. In every 20th section (10-13 sections per ovary), pre-antral follicles were classified as primordial (oocyte surrounded by a single layer of flattened granulosa cells), primary (oocyte surrounded by a single layer of cuboidal cells), secondary (oocyte surrounded by multiple layers of granulosa cells) or antral follicles (follicles containing a fluid-filled antrum). Femora were collected on d58 from both control and VCD-treated animals, fixed in 4% paraformaldehyde, transferred to formaldehyde/formic acid (Cal-Rite, Richard Allan Scientific, Kalamazoo, […]., decalcified 24 hours, vacuum embedded in paraffin and 4.5 μm sections of distal metaphysis were prepared and stained with hematoxylin and eosin.

[5] = tested on: ovarian follicles; experiment: Follicle depletion by other routes and vehicles; format: in vivo; conditions: i.p. injection in DMSO vehicle
[6] = tested on: ovarian follicles; conditions: cited from earlier work
[7] = tested on: ovarian follicles; conditions: cited from earlier work; remark: listed apart in the source

SMILES: C1CC2OC2CC1C1CO1 (stereo not shown) [VCD, 4-vinylcyclohexene diepoxide]
- Cleavage activity of caspase-3 in isolated small pre-antral follicles relative to controls ([1]; 160 mg/kg or 80 mg/kg i.p., 10 d, 4 hours after final treatment): increased
- Caspase-3 activity in small pre-antral (primordial and primary) follicles ([1]; 160 mg/kg/day i.p., 10 d of dosing): 14.37 flourescent units/40 μg protein
- Adrenal, kidney and spleen weight ([2]; 160 mg/kg 15 d, any time): not affected; also recorded: no effect
- Whole body weights ([2]; 160 mg/kg 15 d, any time-point): not affected
- Increase in liver weight ([2]; 160 mg/kg 15 d, d15): 10 % above control
- Uterine weight relative to age-matched vehicle controls ([2]; 160 mg/kg 15 d, d15): 66.04%
- Increase in liver weight ([2]; 160 mg/kg 15 d, d37): 15 % above control
- Ovarian weight ([2]; 160 mg/kg 15 d, d37): 71.2 % of control
- Uterine weight relative to age-matched vehicle controls ([2]; 160 mg/kg 15 d, d37): 71.8%
- Liver weight ([2]; 160 mg/kg 15 d, d46): returned to control levels
- Ovarian weight ([2]; 160 mg/kg 15 d, d46): 61.8 % of control
- Ovarian weight ([2]; 160 mg/kg 15 d, d120): 20.7 % of control
- Uterine weight relative to age-matched vehicle controls ([2]; 160 mg/kg 15 d, d120): 47.0%
- Ovarian tissue weights across treatment groups ([2]; d10 or d15): not significantly different
- Onset of vaginal opening ([2]; not affected by VCD treatment): 31 ± 0.5 days
- Plasma FSH ([3]; d37): 11.5 ± 5.7 ng/mL
- Plasma FSH ([3]; d46): 14.3 ± 1.3 ng/mL
- Plasma FSH ([3]; d58): 20.2 ± 1.2 ng/mL
- Plasma FSH ([3]; d100): 25.8 ± 0.23 ng/mL
- Plasma FSH ([3]; d120): 25.9 ± 1.1 ng/mL
- Plasma FSH ([3]; d127 (data not shown)): increased (p<0.05) relative to controls
- Femur morphology relative to controls [4]: enhanced distances from growth plate to distal metaphysis of the femur with increased lucane
- Follicular depletion with DMSO vehicle versus sesame oil [5]: achieves the same follicular depletion
- Activity on dermal application ([6]; dermal application in acetone): active
- Follicle loss after other routes of exposure ([6]; oral, dermal, or inhalation exposure): follicle loss also occurs
- Premature ovarian failure in long term studies ([7]; F344 rats dosed with VCD): premature ovarian failure occurred within a year
- Number of primordial and primary follicles compared to vehicle controls ([7]; rats, 12 days of dosing): significant reduction
- Numbers of secondary follicles ([7]; rats, 30 days of dosing): significant reduction
